# Measured values from US20030104507A1, “Method for detection of ATP” (priority 2001, published 2003).
# Legend:
# [1] = system: endogenous ATPase of L929 cell lysate; assay: ATPase inhibition at 22° C. and 37° C. by buffered detergent solution with 1% DTAB; assay type: biochemical; settings: up to five hours
# Procedure: Cell lysate was prepared as described in Example 1. The ability of 1% DTAB to inhibit endogenous ATPase (i.e., ATPase present in a sample) was measured in a complete reagent composition over time at both 22° C. (room temperature) and 37° C. Three cell lysate samples were prepared. Sample 1 contained 4.0 ml L929 cell lysate plus 4.0 ml 25 mM Hepes, pH 7.5. Sample 2 contained 4.0 ml L929 cell lysate plus 4.0 ml buffered detergent solution (40 mM Citrate (pH 6.0), 110 mM MES (pH 6.0), 450 mM KPO4 (pH 6.0), 2.0 mM EDTA, 0.2% Mazu DF-204 (PPG Industries), 2.0 mM NaF, 1.0% DTAB and 2% THESIT—final pH of the buffered detergent solution adjusted to 6.0). Sample 3 contained 4.0 ml DMEM/F12 media (no serum) containing 0.1 μM ATP plus 4.0 ml 25 mM Hepes (pH 7.5). The samples were divided in half; half was incubated at 22° C., half was incubated at 37° C. After 10 minutes of incubation in their respective water baths to allow the solution at 37° C. to reach that temperature (this point is referred to as time=10 min.), 100 μl of each sample was transferred independently to a well of a 96-well luminometer plate in quadruplicate. To each 100 μl sample was added 20 μl of a solution containing luciferin (12.5 mM)/luciferase (200 μg/ml LucPpe2m146)/MgSO4 (50 mM) solution. The resulting relative light units were measured on a Dynex luminometer using 0.5 second reads. […]
# LucPpy = molecular target: T1, LucPpy (Photinus pyralis, UniProt P08659); assay: Stability of reagent composition with LucPpy and detergent (RT, pH 7.0); assay type: biochemical; settings: for Average Relative Light Units / Percent of Luminescence Remaining: LucPpy
# T1 construct: purchased Promega E170A
# Method in brief: (§1)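 Reagent with 50 μg/ml luciferase, luciferin, MgSO4, buffer and detergent at varying concentrations held at about 23° C; enzyme added just before first read. At timepoints, aliquots mixed 1:1 with media containing ATP and luminescence read immediately (0.5 s/well, triplicate); reaction half-lives and percent of original luminescence derived.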
# [2] = molecular target: native firefly luciferase (Photinus pyralis, UniProt P08659); settings: cited from earlier work
# LucPpe2m146 = assay: Stability of reagent composition with LucPpe2m146 and detergent (RT, pH 7.0); assay type: biochemical, Photuris pennsylvanica
# Method in brief: as §1
# native firefly luciferase, sequence (P08659 whole entry): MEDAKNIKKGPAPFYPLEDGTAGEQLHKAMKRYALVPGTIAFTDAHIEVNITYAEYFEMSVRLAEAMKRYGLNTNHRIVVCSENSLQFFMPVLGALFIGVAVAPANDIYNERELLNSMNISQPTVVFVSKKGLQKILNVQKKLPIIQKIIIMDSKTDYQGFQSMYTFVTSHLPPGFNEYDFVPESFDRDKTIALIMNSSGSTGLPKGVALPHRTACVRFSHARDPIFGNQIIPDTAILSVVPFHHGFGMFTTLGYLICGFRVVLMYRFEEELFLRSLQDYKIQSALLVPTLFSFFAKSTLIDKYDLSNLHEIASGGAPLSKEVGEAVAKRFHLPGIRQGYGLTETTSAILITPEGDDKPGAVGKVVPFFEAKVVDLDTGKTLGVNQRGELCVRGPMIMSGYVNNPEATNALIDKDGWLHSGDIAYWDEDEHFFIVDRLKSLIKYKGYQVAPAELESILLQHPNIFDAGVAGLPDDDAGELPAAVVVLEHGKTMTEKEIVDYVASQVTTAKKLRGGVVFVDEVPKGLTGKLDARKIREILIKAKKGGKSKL
smiles,measurement,setting,value
"CCCCCCCCCCCC[N+](C)(C)C.[Br-] [DTAB, dodecyltrimethylammonium bromide]",loss of ATP (inhibition of ATPase endogenous to the sample),[1]; 22° C.,no loss of ATP
same,loss of ATP (inhibition of ATPase endogenous to the sample),[1]; 37° C.,minimal loss
same,Half-life of Luminescence Activity,"LucPpy; Common firefly luciferase (P. pyralis), conc. 0.500",no activity
same,Average Relative Light Units,"LucPpy; 0.02%, 0.75 min (head r32)",4513.320 rlu
same,Percent of Luminescence Remaining,"LucPpy; 0.02%, 0.75 min (times of Table I r32)",100.00%
same,Average Relative Light Units,"LucPpy; 0.02%, 38 min (head r32)",3761.940 rlu
same,Percent of Luminescence Remaining,"LucPpy; 0.02%, 38 min (times of Table I r32)",99.53%
same,Average Relative Light Units,"LucPpy; 0.02%, 70 min (head r32)",3363.410 rlu
same,Percent of Luminescence Remaining,"LucPpy; 0.02%, 70 min (times of Table I r32)",74.52%
same,Average Relative Light Units,"LucPpy; 0.02%, 94 min (head r32)",3229.340 rlu
same,Percent of Luminescence Remaining,"LucPpy; 0.02%, 94 min (times of Table I r32)",71.55%
same,Average Relative Light Units,"LucPpy; 0.02%, 122 min (head r32)",3082.030 rlu
same,Percent of Luminescence Remaining,"LucPpy; 0.02%, 122 min (times of Table I r32)",68.2%
same,Average Relative Light Units,"LucPpy; 0.1%, 0.75 min (head r18)",0.307 rlu
same,Percent of Luminescence Remaining,"LucPpy; 0.1%, 0.75 min (times of Table I r18)",100.00%
same,Average Relative Light Units,"LucPpy; 0.1%, 10 min (head r18)",0.009 rlu
same,Percent of Luminescence Remaining,"LucPpy; 0.1%, 10 min (times of Table I r18)",2.93%
same,Average Relative Light Units,"LucPpy; 0.1%, 36 min (head r18)",0.005 rlu
same,Percent of Luminescence Remaining,"LucPpy; 0.1%, 36 min (times of Table I r18)",1.55%
same,Average Relative Light Units,"LucPpy; 0.5%, 0.75 min (head r5)",0.018 rlu
same,Percent of Luminescence Remaining,"LucPpy; 0.5%, 0.75 min (times of Table I r5)",100.00%
same,effect on native firefly luciferase,[2],inactivated
same,Average Relative Light Units,"LucPpe2m146; LucPpe2m146, 0.02%, 1.0 min (head r67)",28730.17 rlu
same,Percent of Luminescence Remaining,"LucPpe2m146; LucPpe2m146, 0.02%, 1.0 min (times of Table I r67)",100.00%
same,Average Relative Light Units,"LucPpe2m146; LucPpe2m146, 0.02%, 34 min (head r67)",28596.30 rlu
same,Percent of Luminescence Remaining,"LucPpe2m146; LucPpe2m146, 0.02%, 34 min (times of Table I r67)",99.53%
same,Average Relative Light Units,"LucPpe2m146; LucPpe2m146, 0.02%, 65 min (head r67)",28651.97 rlu
same,Percent of Luminescence Remaining,"LucPpe2m146; LucPpe2m146, 0.02%, 65 min (times of Table I r67)",99.73%
same,Average Relative Light Units,"LucPpe2m146; LucPpe2m146, 0.02%, 115 min (head r67)",26062.30 rlu
same,Percent of Luminescence Remaining,"LucPpe2m146; LucPpe2m146, 0.02%, 115 min (times of Table I r67)",90.71%
same,Average Relative Light Units,"LucPpe2m146; LucPpe2m146, 0.02%, 175 min (head r67)",27941.73 rlu
same,Percent of Luminescence Remaining,"LucPpe2m146; LucPpe2m146, 0.02%, 175 min (times of Table I r67)",97.26%
same,Average Relative Light Units,"LucPpe2m146; LucPpe2m146, 0.02%, 238 min (head r67)",27677.9 rlu
same,Percent of Luminescence Remaining,"LucPpe2m146; LucPpe2m146, 0.02%, 238 min (times of Table I r67)",96.34%
same,Average Relative Light Units,"LucPpe2m146; LucPpe2m146, 0.02%, 286 min (head r67)",27808.3 rlu
same,Percent of Luminescence Remaining,"LucPpe2m146; LucPpe2m146, 0.02%, 286 min (times of Table I r67)",96.79%
same,Average Relative Light Units,"LucPpe2m146; LucPpe2m146, 0.1%, 1.0 min (head r54)",20132.47 rlu
same,Percent of Luminescence Remaining,"LucPpe2m146; LucPpe2m146, 0.1%, 1.0 min (times of Table I r54)",100.00%
same,Average Relative Light Units,"LucPpe2m146; LucPpe2m146, 0.1%, 34 min (head r54)",20574.63 rlu
same,Percent of Luminescence Remaining,"LucPpe2m146; LucPpe2m146, 0.1%, 34 min (times of Table I r54)",102.20%
same,Average Relative Light Units,"LucPpe2m146; LucPpe2m146, 0.1%, 65 min (head r54)",20800.80 rlu
same,Percent of Luminescence Remaining,"LucPpe2m146; LucPpe2m146, 0.1%, 65 min (times of Table I r54)",103.32%
same,Average Relative Light Units,"LucPpe2m146; LucPpe2m146, 0.1%, 115 min (head r54)",19908.30 rlu
same,Percent of Luminescence Remaining,"LucPpe2m146; LucPpe2m146, 0.1%, 115 min (times of Table I r54)",98.89%
same,Average Relative Light Units,"LucPpe2m146; LucPpe2m146, 0.1%, 175 min (head r54)",20760.93 rlu
same,Percent of Luminescence Remaining,"LucPpe2m146; LucPpe2m146, 0.1%, 175 min (times of Table I r54)",103.12%
same,Average Relative Light Units,"LucPpe2m146; LucPpe2m146, 0.1%, 238 min (head r54)",19758.4 rlu
same,Percent of Luminescence Remaining,"LucPpe2m146; LucPpe2m146, 0.1%, 238 min (times of Table I r54)",98.14%
same,Average Relative Light Units,"LucPpe2m146; LucPpe2m146, 0.1%, 286 min (head r54)",19659.10 rlu
same,Percent of Luminescence Remaining,"LucPpe2m146; LucPpe2m146, 0.1%, 286 min (times of Table I r54)",97.65%
same,Average Relative Light Units,"LucPpe2m146; LucPpe2m146, 0.5%, 15 min (head r41)",5.496 rlu
same,Percent of Luminescence Remaining,"LucPpe2m146; LucPpe2m146, 0.5%, 15 min (times of Table I r41)",100.00%
same,Average Relative Light Units,"LucPpe2m146; LucPpe2m146, 0.5%, 72 min (head r41)",3.141 rlu
same,Percent of Luminescence Remaining,"LucPpe2m146; LucPpe2m146, 0.5%, 72 min (times of Table I r41)",57.16%
same,Average Relative Light Units,"LucPpe2m146; LucPpe2m146, 0.5%, 124 min (head r41)",2.769 rlu
same,Percent of Luminescence Remaining,"LucPpe2m146; LucPpe2m146, 0.5%, 124 min (times of Table I r41)",50.39%
same,Average Relative Light Units,"LucPpe2m146; LucPpe2m146, 0.5%, 190 min (head r41)",2.563 rlu
same,Percent of Luminescence Remaining,"LucPpe2m146; LucPpe2m146, 0.5%, 190 min (times of Table I r41)",46.64%
same,Average Relative Light Units,"LucPpe2m146; LucPpe2m146, 0.5%, 251 min (head r41)",2.766 rlu
same,Percent of Luminescence Remaining,"LucPpe2m146; LucPpe2m146, 0.5%, 251 min (times of Table I r41)",50.32%
